The values that follow come from patent US10314841B2, “Substituted pyrazoles as IRAK inhibitors” (Merck Patent GmbH, priority 2014, dated 2019).

Assay [1] concerns TLR7 induced IL-6 secretion in human PBMC's. In words: TLR7 induced IL-6 in human PBMC's. The class given is cell-based. The settings on record: read-out: TLR7 induced IL-6 secretion in hPBMC's (IC50). The procedure: TLR7 Induced IL-6 in Human PBMC's Human PBMC assay was used as one of the functional assays to monitor the activity of IRAK1 and IRAK4 small molecule inhibitors on TLR7 induced IL-6 secretion in human mononuclear cells (PBMC's). Human PBMCs were prepared from buffy coats (whole blood enriched with leukocytes and platelets) obtained from healthy volunteers used either fresh or frozen are plated in assay media (RPMI+2% P/S/L-glu+10% HI-FBS) and pre-treated with compounds in DMSO/media (range of concentrations from 25 uM to 0.4 nM) or controls (0.25% DMSO) for 30 minutes at 37° C. in assay media. Following pre-treatment with IRAK1 and IRAK4 inhibitors, PBMC's were stimulated with TLR7 specific ligand (2 uM) overnight (16-18 hrs) at 37° C. After incubation supernatant was transferred to 384 well PE AlphaPlate-384 (6005350) and IL-6 is quantified using Perkin Elmer IL-6 Alpha LISA kit (A[…]). Plates were read on an Envision® plate reader with Alpha Technology®.

For assay [2], the target named is T1, IRAK1 (His-TEV-IRAK1 (194-712)) (Homo sapiens, UniProt P51617).
T1 construct: His-TEV-IRAK1 (194-712); His (N); TEV cleavage site (N)
Kind of assay: IRAK1 enzymatic assay. The class given is biochemical. The settings on record: human recombinant His-TEV-IRAK1, ATP 1 μM, 3 hours at 30° C., FlashPlate. The procedure:
IRAK1 Enzymatic Assay IRAK1 is a human purified recombinant enzyme (His-TEV-IRAK1 (194-712)). In this assay, IRAK-1 hydrolyses ATP and autophosphorylates. Measurement of IRAK-1 inhibition was performed in streptavidin coated 384 well FlashPlate (PerkinElmer #SM[…]). His-TEV-IRAK-1 (15 ng/well), ATP (1 μ[…]]ATP 0.25 μCi/well) and compounds in DMSO (range of concentrations from 20 μM to 1 nM) or controls (2% DMSO) were incubated for 3 hours at 30° C. in assay buffer: Hepes pH7.0 50 mM, Fatty acid-free BSA 0.1%, Dithiothreitol DTT 2 mM, MgCl2 10 mM, EGTA 0.5 mM, Triton-X-100 0.01%. Kinase reaction was stopped by addition of EDTA. Supernatant was discarded, plates were washed three times with 150 mM NaCl and radioactivity was then measured in a Microbeta Trilux reader.

The next assay has as its target T2, IRAK4 (His-TEV-IRAK4) (Homo sapiens, UniProt Q9NWZ3).
T2 construct: His (N); TEV cleavage site (N)
T2 sequence (Q9NWZ3 1-460): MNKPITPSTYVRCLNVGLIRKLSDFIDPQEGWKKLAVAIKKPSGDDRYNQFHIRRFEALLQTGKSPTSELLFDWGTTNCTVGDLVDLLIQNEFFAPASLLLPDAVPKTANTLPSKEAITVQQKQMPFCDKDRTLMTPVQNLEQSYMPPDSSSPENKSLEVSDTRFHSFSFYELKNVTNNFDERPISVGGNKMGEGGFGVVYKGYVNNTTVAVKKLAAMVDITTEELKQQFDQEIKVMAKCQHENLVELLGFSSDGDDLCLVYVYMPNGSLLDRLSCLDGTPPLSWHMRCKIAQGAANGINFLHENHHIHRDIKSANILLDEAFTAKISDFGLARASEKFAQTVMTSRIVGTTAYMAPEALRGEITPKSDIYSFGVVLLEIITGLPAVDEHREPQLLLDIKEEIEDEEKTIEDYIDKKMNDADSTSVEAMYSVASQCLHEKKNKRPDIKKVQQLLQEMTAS
Kind of assay: IRAK4 enzymatic assay. The settings on record: human recombinant His-TEV-IRAK4, ATP 2 μM, STK1-biotin peptide 300 nM, 3 hours at 30° C., FlashPlate. Format: biochemical. The procedure: IRAK4 Enzymatic Assay IRAK4 is a human purified recombinant enzyme (His-TEV-[…] (194-712). IRAK4 hydrolyses ATP, autophosphorylates and phosphorylates a Serine/Threonine generic peptidic substrate (STK: 61 ST1BLC from CisBio International based in Bagnols/Cèze FR). Measurement of IRAK-4 inhibition was performed in streptavidin coated 384 well FlashPlate (PerkinElmer #SM[…]). His-TEV-IRAK4 (20 ng/well), ATP (2 μM, [^33P]ATP 0.25 μCi/well), STK1-biotin peptide (300 nM) and compounds in DMSO (range of concentrations from 20 μM to 1 nM) or controls (2% DMSO) were incubated for 3 hours at 30° C. in assay buffer: Hepes pH7.0 50 mM, Fatty acid-free BSA 0.1%, Dithiothreitol DTT 2 mM, MgCl2 10 mM, EGTA 0.5 mM, Tween-20 0.01%, MnCl2 5 mM. Kinase reaction was stopped by addition of EDTA. Supernatant was discarded, plates were washed three times with 150 mM NaCl and radioactivity was then measured in a Microbeta Trilux reader.

[3] abbreviates: human PBMC, TLR7 specific ligand 2 uM overnight, IL-6 Alpha LISA.

pIC50: −log10 of the molar value. Like-named read-outs stand apart in the source and are kept apart here. Some results are limits rather than exact numbers.

As a reminder, the pIC50 is the IC50 on a negative log10 scale, so that one unit is a factor of ten.

T1 sequence (P51617 194-712): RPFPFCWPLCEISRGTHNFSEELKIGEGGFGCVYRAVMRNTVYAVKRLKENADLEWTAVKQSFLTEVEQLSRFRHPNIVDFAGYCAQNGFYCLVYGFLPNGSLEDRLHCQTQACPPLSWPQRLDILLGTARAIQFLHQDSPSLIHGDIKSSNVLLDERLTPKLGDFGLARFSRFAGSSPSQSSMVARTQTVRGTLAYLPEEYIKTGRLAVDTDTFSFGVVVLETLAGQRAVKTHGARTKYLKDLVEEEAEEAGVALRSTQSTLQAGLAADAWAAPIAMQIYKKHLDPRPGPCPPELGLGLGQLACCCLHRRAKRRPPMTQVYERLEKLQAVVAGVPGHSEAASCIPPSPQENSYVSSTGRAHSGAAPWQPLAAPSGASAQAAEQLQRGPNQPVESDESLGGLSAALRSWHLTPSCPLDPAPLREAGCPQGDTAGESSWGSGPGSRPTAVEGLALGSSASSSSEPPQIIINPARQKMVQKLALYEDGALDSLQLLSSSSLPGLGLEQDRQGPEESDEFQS

Take `C=CS(=O)(=O)N[C@@H]1CCC[C@H](n2cc(-c3cnc(-c4cccc(-c5cnn(C)c5)c4)nc3)cn2)C1` (racemic) [Compound 33]: the results for the pIC50 (in assay [1] (setting [3]); in assay [2]; on IRAK4 (His-TEV-IRAK4)) were 6.00 to 7.00, above 7.00 and above 7.00, respectively.
As for `Cn1cc(-c2cccc(-c3ncc(-c4cnn(C5CCCC(C(=O)O)C5)c4)cn3)c2)cn1` (mixture of isomers) [Compound 41, Lithium 3-(4-{2-[3-(1-Methyl-1H-pyrazol-4-yl)-phenyl]-pyrimidin-5-yl}-pyrazol-1-yl)-cyclohexanecarboxylate], the pIC50 is 4.70 to 6.00 in assay [1] (Homo sapiens, PBMC); 4.70 to 6.00 in assay [2]; 6.00 to 7.00 at IRAK4 (His-TEV-IRAK4).
Turning to `C=CC(=O)N[C@@H]1CCC[C@H](n2cc(-c3cnc(-c4cccc(-c5cnn(C)c5)c4)nc3)cn2)C1` (relative stereo) [Compound 36], the pIC50 was 6.00 to 7.00 in assay [1] (setting [3]), above 7.00 in assay [2] and above 7.00 on IRAK4 (His-TEV-IRAK4).
For the molecule `CC#CC(=O)N1CCC(n2cc(-c3cnc(-c4cccc(-c5cnn(C)c5)c4)nc3)cn2)CC1` [Compound 48, 1-[4-(4-{2-[3-(1-Methyl-1H-pyrazol-4-yl)-phenyl]-pyrimidin-5-yl}-pyrazol-1-yl)-piperidin-1-yl]-but-2-yn-1-one], the pIC50 was 4.70 to 6.00 in assay [1] (setting [3]), above 7.00 in assay [2] and above 7.00 on IRAK4 (His-TEV-IRAK4).
As for `Cn1cc(-c2cccc(-c3ncc(-c4cnn(C5CCN(C(=O)/C(C#N)=C\C6CC6)CC5)c4)cn3)c2)cn1` [Compound 46, (Z)-3-Cyclopropyl-2-[4-(4-{2-[3-(1-methyl-1H-pyrazol-4-yl)-phenyl]-pyrimidin-5-yl}-pyrazol-1-yl)-piperidine-1-carbonyl]-acrylonitrile], the figures for the pIC50 (in assay [1] (setting [3]); in assay [2]; at IRAK4 (His-TEV-IRAK4)) were 6.00 to 7.00, above 7.00 and above 7.00, respectively.
Take `Cn1cc(-c2cccc(-c3ncc(-c4cnn([C@H]5CCC[C@H](N6CCOCC6=O)C5)c4)cn3)c2)cn1` (relative stereo) [Compound 3, 4-[Trans-3-(4-{2-[3-(1-Methyl-1H-pyrazol-4-yl)-phenyl]-pyrimidin-5-yl}-pyrazol-1-yl)-cyclohexyl]-morpholin-3-one]: the pIC50 in assay [1] (setting [3]) was 6.00 to 7.00; in assay [2], 6.00 to 7.00; at IRAK4 (His-TEV-IRAK4), above 7.00.
For the molecule `C=CC(=O)N1CCC(n2cc(-c3cnc(-c4cccc(-c5cnn(C)c5)c4)nc3)cn2)CC1` [Compound 10, 1-[4-(4-{2-[3-(1-Methyl-1H-pyrazol-4-yl)-phenyl]-pyrimidin-5-yl}-pyrazol-1-yl)-piperidin-1-yl]-propenone], the figures for the pIC50 (in assay [1] (setting [3]); in assay [2]; on IRAK4 (His-TEV-IRAK4)) were 6.00 to 7.00, 6.00 to 7.00 and above 7.00, respectively.
On to `Cn1cc(-c2cccc(-c3ncc(-c4cnn(C5CCC[C@@H](NC6CCOC6)C5)c4)cn3)c2)cn1` (stereo partly drawn) [Compound 12, [3-Cis-(4-{2-[3-(1-Methyl-1H-pyrazol-4-yl)-phenyl]-pyrimidin-5-yl}-pyrazol-1-yl)-cyclohexyl]-(tetrahydro-furan-3-yl)-amine], for which the pIC50 in assay [1] (setting [3]) was 6.00 to 7.00; in assay [2], above 7.00; on IRAK4 (His-TEV-IRAK4), above 7.00.
`C=CS(=O)(=O)N[C@H]1CCC[C@H](n2cc(-c3cnc(-c4cccc(-c5cnn(C)c5)c4)nc3)cn2)C1` (relative stereo) [Compound 37, Ethenesulfonic acid [Trans-3-(4-{2-[3-(1-methyl-1H-pyrazol-4-yl)-phenyl]-pyrimidin-5-yl}-pyrazol-1-yl)-cyclohexyl]-amide]: the pIC50 in assay [1] (setting [3]) is 6.00 to 7.00; in assay [2], above 7.00; at IRAK4 (His-TEV-IRAK4), above 7.00.
For `Cn1cc(-c2cccc(-c3ncc(-c4cnn([C@H]5CCC[C@@H](NS(C)(=O)=O)C5)c4)cn3)c2)cn1` (single isomer, unassigned) [Compound 28], the figures for the pIC50 (in assay [1] (setting [3]); in assay [2]; on IRAK4 (His-TEV-IRAK4)) were 4.70 to 6.00, 6.00 to 7.00 and 6.00 to 7.00, respectively.
`C=CS(=O)(=O)N1CCCC(n2cc(-c3cnc(-c4cccc(-c5cnn(C)c5)c4)nc3)cn2)C1` (stereo not shown) [Compound 17, 5-[1-(1-Ethenesulfonyl-piperidin-3-yl)-1H-pyrazol-4-yl]-2-[3-(1-methyl-1H-pyrazol-4-yl)-phenyl]-pyrimidine]: the pIC50 (in assay [1] (setting [3]); in assay [2]; at IRAK4 (His-TEV-IRAK4)) was above 7.00 each time.
With `Cn1cc(-c2cccc(-c3ncc(-c4cnn([C@H]5CCC[C@H](NCCO)C5)c4)cn3)c2)cn1` (relative stereo) [Compound 2, 2-[Trans-3-(4-{2-[3-(1-Methyl-1H-pyrazol-4-yl)-phenyl]-pyrimidin-5-yl}-pyrazol-1-yl)-cyclohexylamino]-ethanol], the pIC50 is 4.70 to 6.00 in assay [1] (setting [3]), 6.00 to 7.00 in assay [2] and above 7.00 at IRAK4 (His-TEV-IRAK4).
On the same counts, the results for `Cn1cc(-c2cccc(-c3ncc(-c4cnn(C5CCNCC5CO)c4)cn3)c2)cn1` (mixture of isomers) [Compound 26, [4-(4-{2-[3-(1-Methyl-1H-pyrazol-4-yl)-phenyl]-pyrimidin-5-yl}-pyrazol-1-yl)-piperidin-3-yl]-methanol] are 4.70 to 6.00, 6.00 to 7.00 and 6.00 to 7.00.
Turning to `Cn1cc(-c2cccc(-c3ncc(-c4cnn(C5CCCC(NC(=O)OC(C)(C)C)C5)c4)cn3)c2)cn1` (stereo not shown) [Compound 9, [3-(4-{2-[3-(1-Methyl-1H-pyrazol-4-yl)-phenyl]-pyrimidin-5-yl}-pyrazol-1-yl)-cyclohexyl]-carbamic acid tert-butyl ester], the negative logarithm of the IC50 (pIC50) is 4.70 to 6.00 in assay [1] (setting [3]), above 7.00 in assay [2] and above 7.00 on IRAK4 (His-TEV-IRAK4).
Regarding `Cn1nccc1-c1cccc(-c2ncc(-c3cnn([C@H]4CC[C@]5(CCC(=O)N5C)CC4)c3)cn2)c1` [Compound 43, 1-Methyl-8-((S)-4-{2-[3-(2-methyl-2H-pyrazol-3-yl)-phenyl]-pyrimidin-5-yl}-pyrazol-1-yl)-1-aza-spiro[4.5]decan-2-one], the pIC50 was 4.70 to 6.00 in assay [1] (setting [3]), 4.70 to 6.00 in assay [2] and above 7.00 on IRAK4 (His-TEV-IRAK4).
For `Cn1cc(-c2cccc(-c3ncc(-c4cnn([C@H]5C[C@@H]6CC[C@@H](N6)C5F)c4)cn3)c2)cn1` (stereo partly shown) [Compound 19, 2-Fluoro-3-(4-{2-[3-(1-methyl-1H-pyrazol-4-yl)-phenyl]-pyrimidin-5-yl}-pyrazol-1-yl)-8-aza-bicyclo[3.2.1]octane], the pIC50 (in assay [2]; on IRAK4 (His-TEV-IRAK4)) was above 7.00 each time.
Turning to `Cn1cc(-c2cccc(-c3ncc(-c4cnn(C5CCC(C(=O)O)C5)c4)cn3)c2)cn1` (stereo not shown) [Compound 42, 3-(4-{2-[3-(1-Methyl-1H-pyrazol-4-yl)-phenyl]-pyrimidin-5-yl}-pyrazol-1-yl)-cyclopentanecarboxylic acid], the figures for the pIC50 (in assay [2]; at IRAK4 (His-TEV-IRAK4)) were 4.70 to 6.00 and 6.00 to 7.00, respectively.
